The numbers were not newly measured in US20080003262A1, “COMPOSITIONS AND THERAPEUTIC METHODS OF USE” (DrugTech Corporation, priority 2006, published 2008), which cites them from elsewhere.

The structures appear in SMILES notation.

The series has as its system DIV. The note with it: intravaginal 2% clindamycin cream or 10% hydrocortisone.

As for `C[C@]12CCC(=O)C=C1CC[C@@H]1[C@@H]2[C@@H](O)C[C@@]2(C)[C@H]1CC[C@]2(O)C(=O)CO` [hydrocortisone], the “Response of DIV to treatment” value is “responds”.
